Legend:
[1] = system: absorption of sodium from the intestinal lumen; experiment: Inhibition of intestinal sodium absorption: urinary sodium (uNa) 16 h after single oral dose in rats; type: in vivo, rat; conditions: oral gavage, 16 h post-dose
Procedure, shortened: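 Urinary sodium mass over the 16 h after one oral gavage dose, measured by cation-exchange ion chromatography, reported as percent of water-vehicle group; ANOVA plus Dunnett's post hoc test. Groups of six 8-week-old Sprague-Dawley rats, housed individually in metabolic cages post-dose, fed and watered freely.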

[2] = biological target: T1, Human NHE3 (Homo sapiens, UniProt P48764); experiment: Cell-based NHE3 activity under prompt conditions (OK cells, BCECF pH recovery), human NHE3; conditions: prompt conditions
T1 construct: expressed in transfected cells; host or cells: Opossum kidney (OK) cells (ATCC), electroporation
T1 sequence (P48764 26-834): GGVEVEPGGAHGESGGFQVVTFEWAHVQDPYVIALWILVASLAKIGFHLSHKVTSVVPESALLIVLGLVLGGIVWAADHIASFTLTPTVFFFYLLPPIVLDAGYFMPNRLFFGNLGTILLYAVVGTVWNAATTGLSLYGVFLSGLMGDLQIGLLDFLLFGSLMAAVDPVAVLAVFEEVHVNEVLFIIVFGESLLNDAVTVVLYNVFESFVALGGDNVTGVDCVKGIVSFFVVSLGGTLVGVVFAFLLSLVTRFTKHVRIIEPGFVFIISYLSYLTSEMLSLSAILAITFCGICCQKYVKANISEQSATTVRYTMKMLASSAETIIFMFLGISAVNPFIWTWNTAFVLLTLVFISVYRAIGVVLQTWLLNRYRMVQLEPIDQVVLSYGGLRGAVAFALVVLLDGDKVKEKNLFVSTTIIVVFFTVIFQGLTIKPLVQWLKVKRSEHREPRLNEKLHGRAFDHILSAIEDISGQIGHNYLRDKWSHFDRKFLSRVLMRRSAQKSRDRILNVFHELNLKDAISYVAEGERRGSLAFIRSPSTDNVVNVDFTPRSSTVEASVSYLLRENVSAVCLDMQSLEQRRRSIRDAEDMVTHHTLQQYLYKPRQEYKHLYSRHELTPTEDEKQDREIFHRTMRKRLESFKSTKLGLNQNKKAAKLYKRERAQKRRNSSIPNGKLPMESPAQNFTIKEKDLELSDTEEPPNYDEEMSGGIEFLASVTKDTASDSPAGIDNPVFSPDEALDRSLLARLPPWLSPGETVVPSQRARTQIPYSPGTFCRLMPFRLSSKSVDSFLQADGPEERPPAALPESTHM
Procedure, shortened: (§1)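 Read-out: initial rate of BCECF-reported intracellular pH recovery via Na+/H+ antiport, fitted to pIC50. Opossum kidney cells transfected with rat or human NHE3; NH4Cl prepulse with 5 μM BCECF-AM, 30 min RT; Na+-free choline buffer 10 min.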

[3] = system: phosphorus and calcium levels in the urine of rats; experiment: Urinary excretion of phosphate and calcium in rats (16 h overnight urine); type: in vivo, rat; conditions: rats, oral gavage, 16 h post-dose
[4] = biological target: T2, Rat NHE3 (Rattus norvegicus, UniProt P26433); experiment: Cell-based NHE3 activity under prompt conditions (OK cells, BCECF pH recovery), rat NHE3; conditions: prompt conditions
T2 construct: expressed in transfected cells; host or cells: Opossum kidney (OK) cells (ATCC), electroporation
Procedure, shortened: as §1

[5] = system: absorption of sodium from the intestinal lumen; experiment: Fecal form score (FFS) 16 h after oral dose in rats; type: in vivo, rat; conditions: oral gavage, 16 h post-dose, scale 1-5
Procedure, shortened: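 Fecal form was scored at 16 h post-dose on a 1–5 wetness scale (normal pellet to liquid stream), with two independent observations averaged across six rats per group. Animals were 8-week-old Sprague-Dawley rats given test compound or water orally in the late afternoon and kept in metabolic cages.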

T2 sequence (P26433 29-831): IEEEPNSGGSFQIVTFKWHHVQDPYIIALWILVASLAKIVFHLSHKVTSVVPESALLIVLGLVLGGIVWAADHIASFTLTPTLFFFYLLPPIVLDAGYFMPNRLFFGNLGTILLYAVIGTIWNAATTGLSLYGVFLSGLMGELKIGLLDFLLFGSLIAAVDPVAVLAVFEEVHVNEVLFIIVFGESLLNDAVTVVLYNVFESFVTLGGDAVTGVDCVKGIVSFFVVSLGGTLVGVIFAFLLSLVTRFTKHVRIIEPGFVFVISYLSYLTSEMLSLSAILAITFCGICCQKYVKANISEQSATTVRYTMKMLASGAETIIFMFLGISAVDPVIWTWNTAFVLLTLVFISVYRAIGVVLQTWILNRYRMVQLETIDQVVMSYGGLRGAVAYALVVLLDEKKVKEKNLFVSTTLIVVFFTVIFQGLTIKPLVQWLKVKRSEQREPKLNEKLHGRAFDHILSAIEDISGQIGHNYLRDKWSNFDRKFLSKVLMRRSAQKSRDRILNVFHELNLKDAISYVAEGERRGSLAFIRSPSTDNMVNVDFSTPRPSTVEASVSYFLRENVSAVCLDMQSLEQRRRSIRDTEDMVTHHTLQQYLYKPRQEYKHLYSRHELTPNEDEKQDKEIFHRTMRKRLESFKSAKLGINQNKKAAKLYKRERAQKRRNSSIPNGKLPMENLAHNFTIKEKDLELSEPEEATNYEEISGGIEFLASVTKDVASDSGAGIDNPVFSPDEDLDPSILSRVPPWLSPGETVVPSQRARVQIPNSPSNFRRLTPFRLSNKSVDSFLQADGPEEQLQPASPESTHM

SMILES | Prompt Human NHE3 pIC50 [2] | Prompt Rat NHE3 pIC50 [4] | IC50 ([4]; read-out: Prompt Rat NHE3 pIC50 (converted)) [nM] | Urine Na % of control ([1]; dose 3 mg/kg) [%] | Urine P % of control ([3]; dose 3 mg/kg) [%] | Fecal Form Score average ([5]; dose 3 mg/kg) | Urine Na % of control ([1]; dose 10 mg/kg) [%] | Urine P % of control ([3]; dose 10 mg/kg) [%] | Fecal Form Score average ([5]; dose 10 mg/kg) | Urine Na % of control ([1]; dose 1 mg/kg) [%] | Urine Na % of control ([1]; dose 2 mg/kg) [%] | Urine P % of control ([3]; dose 1 mg/kg) [%] | Urine P % of control ([3]; dose 2 mg/kg) [%] | Fecal Form Score average ([5]; dose 1 mg/kg) | Fecal Form Score average ([5]; dose 2 mg/kg)
O=C(NCCCCNC(=O)NCCOCCOCCOCCNS(=O)(=O)c1ccc(O[C@H]2c3ccccc3C[C@@H]2N2CCCCC2)cc1)NCCOCCOCCOCCNS(=O)(=O)c1ccc(O[C@H]2c3ccccc3C[C@@H]2N2CCCCC2)cc1 (racemic) [compound 51] | 7.90 | 7.40 | – | – | – | – | 79 | 52 | 1 | – | – | – | – | – | –
CN(CC(=O)NCCOCCOCCNC(=O)NCCOCCOCCOCCOc1cccc(-c2nc(NC(=N)N)nc3ccc(Cl)cc23)c1)CC(=O)NCCOCCOCCNC(=O)NCCOCCOCCOCCOc1cccc(-c2nc(NC(=N)N)nc3ccc(Cl)cc23)c1 [compound 43] | 7.70 | 7.50 | – | – | – | – | 70 | 101 | 1 | – | – | – | – | – | –
NCCOCCOCCOc1cccc(-c2nc(N=C(N)N)nc3ccc(Cl)cc23)c1 [compound 10] | 7.50 | 6.65 | – | – | – | – | 76 | 80 | 1 | – | – | – | – | – | –
C/C(=C\c1cc(F)c(Oc2ccc(S(=O)(=O)NCCOCCOCCOCCNC(=O)CN(C)CC(=O)NCCOCCOCCOCCNS(=O)(=O)c3ccc(Oc4c(F)cc(/C=C(\C)C(=O)N=C(N)N)cc4F)cc3)cc2)c(F)c1)C(=O)N=C(N)N [compound 9] | 7.10 | 6.50 | – | – | – | – | 56 | 77 | 1 | – | – | – | – | – | –
CC(C)(C(=O)NCCOCCOCCOCCNS(=O)(=O)c1ccc(O[C@H]2c3ccccc3C[C@@H]2N2CCCCC2)cc1)C(=O)NCCOCCOCCOCCNS(=O)(=O)c1ccc(O[C@H]2c3ccccc3C[C@@H]2N2CCCCC2)cc1 [compound 119] | 7.80 | 8.70 | – | – | – | – | 43 | 52 | 1 | – | – | – | – | – | –

Further lines, with some results ahead:

Prompt Human NHE3 pIC50 [2] | Prompt Rat NHE3 pIC50 [4] | IC50 ([4]; read-out: Prompt Rat NHE3 pIC50 (converted)) [nM] | SMILES | Urine Na % of control ([1]; dose 3 mg/kg) [%] | Urine P % of control ([3]; dose 3 mg/kg) [%] | Fecal Form Score average ([5]; dose 3 mg/kg) | Urine Na % of control ([1]; dose 10 mg/kg) [%] | Urine P % of control ([3]; dose 10 mg/kg) [%] | Fecal Form Score average ([5]; dose 10 mg/kg) | Urine Na % of control ([1]; dose 1 mg/kg) [%] | Urine Na % of control ([1]; dose 2 mg/kg) [%] | Urine P % of control ([3]; dose 1 mg/kg) [%] | Urine P % of control ([3]; dose 2 mg/kg) [%] | Fecal Form Score average ([5]; dose 1 mg/kg) | Fecal Form Score average ([5]; dose 2 mg/kg)
7.10 | 8.20 | – | CN1Cc2c(Cl)cc(Cl)cc2[C@H](c2cccc(S(=O)(=O)NCCOCCOCCNC(=O)NCCC(CCNC(=O)NCCOCCOCCNS(=O)(=O)c3cccc([C@@H]4CN(C)Cc5c(Cl)cc(Cl)cc54)c3)(CCNC(=O)NCCOCCOCCNS(=O)(=O)c3cccc([C@@H]4CN(C)Cc5c(Cl)cc(Cl)cc54)c3)NC(=O)COCC(=O)O)c2)C1 [compound 172] | 26 | 42 | 2 | – | – | – | – | – | – | – | – | –
8.00 | 8.10 | – | CN(C)[C@H]1Cc2c(Cl)cc(Cl)cc2[C@@H]1Oc1ccc(S(=O)(=O)NCCOCCOCCNC(=O)COCC(=O)NCCOCCOCCNS(=O)(=O)c2ccc(O[C@H]3c4cc(Cl)cc(Cl)c4C[C@@H]3N(C)C)cc2)cc1 [compound 149] | 46 | 115 | 1 | – | – | – | 54 | 53 | 122 | 69 | 1 | 2
7.20 | – | 79.4 | CN1Cc2c(Cl)cc(Cl)cc2[C@H](c2cccc(S(=O)(=O)NCCOCCOCCNCCCC(CCC(=O)NCCOCCOCCNS(=O)(=O)c3cccc([C@@H]4CN(C)Cc5c(Cl)cc(Cl)cc54)c3)(CCC(=O)NCCOCCOCCNS(=O)(=O)c3cccc([C@@H]4CN(C)Cc5c(Cl)cc(Cl)cc54)c3)NC(=O)N3CCN(CCOCCO)CC3)c2)C1 [compound 170] | 31 | 34 | 2 | – | – | – | – | – | – | – | – | –
